According to patent publication US10028961B2, “Therapeutically active compounds and their methods of use” (AGIOS PHARMACEUTICALS, INC., priority 2013, dated 2018):
Like-named read-outs stand apart in the source and are kept apart here.

Legend:
[1] = biological target: IDH1-R132H homodimer enzyme (Homo sapiens (Human), UniProt O75874, R132H); assay: In vitro assay IDH1-R132H homodimer, NADPH depletion assay with NADPH/NADP preincubation; assay type: biochemical; details: 5 μM NADPH and 37.5 μM NADP
Method: The following describes the experimental procedures that can be used to obtain data on columns 3 and 5 of Table 5.
A test compound is prepared as 10 mM stock in DMSO and diluted to 50× final concentration in DMSO, for a 50 μl reaction mixture. IDH enzyme activity converting alpha-ketoglutarate to 2-hydroxyglutaric acid is measured using a NADPH depletion assay. In the assay the remaining cofactor is measured at the end of the reaction with the addition of a catalytic excess of diaphorase and resazurin, to generate a fluorescent signal in proportion to the amount of NADPH remaining. […] The reaction is started with the addition of 10 μl of Substrate Mix ([…], 5 mM alpha-ketoglutarate, in Assay Buffer) and the mixture is incubated for 60 minutes at room temperature.

HT1080 cells = assay: Cellular assay for IDH1m R132C inhibitors, 2-HG by LC-MS in HT1080 cells; assay type: cell-based; details: Homo sapiens, HT-1080
Method: The following describes the experimental procedures that can be used to obtain data on column 5 of Table 4.
Cells (HT1080 or U87MG) are grown in T125 flasks in DMEM containing 10% FBS, 1× penicillin/streptomycin and 500 ug/mL G418 (present in U87MG cells only). They are harvested by trypsin and seeded into 96 well white bottom plates at a density of 5000 cell/well in 100 ul/well in DMEM with 10% FBS. No cells are placed in columns 1 and 12. Cells are incubated overnight at 37° C. in 5% CO2. The next day test compounds are made up at 2× the final concentration and 100 ul are added to each cell well. The final concentration of DMSO is 0.2% and the DMSO control wells are plated in row G. The plates are then placed in the incubator for 48 hours. At 48 hours, 100 ul of media is removed from each well and analyzed by LC-MS for 2-HG concentrations. The cell plate is placed back in the incubator for another 24 hours. At 72 hours post compound addition, 10 mL/plate of Promega Cell Titer Glo reagent is thawed and mixed. The cell plate is removed from the incubator and allowed to equilibrate to room temperature. Then 100 ul of Promega Cell Titer Glo reagent is added to each well of media. The cell plate is then placed on an orbital shaker for 10 minutes and then allowed to sit at room temperature for 20 minutes. The plate is then read for luminescence with an integration time of 500 ms.
HT1080 cells are maintained in RPMI containing 10% FBS, 1× penicillin/streptomycin. […] The next day compounds are prepared in 100% DMSO and then diluted in media for a final concentration of 0.2% DMSO. Media is removed from the cell plates and 200 μL of the compound dilutions are added to each well. […] The cell plates are then allowed to incubate another 24 hours.

IDH2 R140Q = IDH2 R140Q (Homo sapiens (Human), UniProt P48735, R140Q); assay: In vitro assay for IDH2m R140Q inhibitors, cofactor depletion assay; assay type: biochemical; details: IDH2 R140Q enzyme
In short: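 Remaining cofactor measured fluorimetrically: diaphorase/resazurin Stop Mix […], halting the reaction. Before that, mutant enzyme and compound sat 1 h at RT, then substrate mix (4 μM NADPH, 1.6 mM α-KG) was added for 16 h at RT.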

[2] = biological target: IDH1 wt/IDH1 R132H heterodimer (Homo sapiens (Human), UniProt O75874, R132H); assay: In vitro assay for IDH1m R132H inhibitors, IDH1 wt/IDH1 R132H heterodimer, NADPH depletion (diaphorase/resazurin); assay type: biochemical
In short: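 Purified IDH1wt-his/IDH1R132H-flag heterodimer (sf9 co-expression) pre-incubated 1 hr at room temperature with compound and NADPH before α-KG addition. Remaining NADPH read by diaphorase/resazurin conversion to fluorescent resorufin, 5 min at 25° C. Compounds diluted 1:50 from DMSO; IC50 determined.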

[3] = tested on: Neurosphere cells (TS603); assay: Cellular assay for IDH1m R132H inhibitors, 2-HG by LC-MS in neurosphere cells (TS603); assay type: cell-based; details: 2-HG in media at 48 hours
In short: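 TS603 neurosphere cells in NeuroCult medium were dosed with compound (0.25% DMSO final) at 37 C, 5% CO2. After 48 hours, medium 2-HG was measured by LC-MS. At 72 hours, viability was read by CellTiter-Glo luminescence.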

[4] = tested on: U87MG pLVX-IDH2 R140Q-neo cells; assay: U87MG pLVX-IDH2 R140Q-neo cell based assay, 2-HG by LC-MS; details: Homo sapiens, U-87 MG
[5] = IDH1 wt/R132H heterodimer, NADPH/NADP, not saturated, read-out: IDH1 wt/R132H NADPH/NADP IC50 not saturated

IDH2 R140Q, sequence (P48735 40-452 R140Q): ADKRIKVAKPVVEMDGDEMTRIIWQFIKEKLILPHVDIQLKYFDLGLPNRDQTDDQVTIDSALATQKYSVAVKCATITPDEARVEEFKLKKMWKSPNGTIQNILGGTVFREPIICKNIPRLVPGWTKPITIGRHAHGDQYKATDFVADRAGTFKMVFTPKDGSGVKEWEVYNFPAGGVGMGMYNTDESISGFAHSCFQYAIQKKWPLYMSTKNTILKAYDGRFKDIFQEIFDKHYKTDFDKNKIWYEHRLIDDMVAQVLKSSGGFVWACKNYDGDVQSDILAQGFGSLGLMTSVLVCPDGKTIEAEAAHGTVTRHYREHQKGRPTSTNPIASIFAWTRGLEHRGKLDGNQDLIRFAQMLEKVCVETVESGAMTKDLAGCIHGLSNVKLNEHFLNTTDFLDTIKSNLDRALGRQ
IDH1 wt/IDH1 R132H heterodimer, sequence (O75874 whole entry R132H): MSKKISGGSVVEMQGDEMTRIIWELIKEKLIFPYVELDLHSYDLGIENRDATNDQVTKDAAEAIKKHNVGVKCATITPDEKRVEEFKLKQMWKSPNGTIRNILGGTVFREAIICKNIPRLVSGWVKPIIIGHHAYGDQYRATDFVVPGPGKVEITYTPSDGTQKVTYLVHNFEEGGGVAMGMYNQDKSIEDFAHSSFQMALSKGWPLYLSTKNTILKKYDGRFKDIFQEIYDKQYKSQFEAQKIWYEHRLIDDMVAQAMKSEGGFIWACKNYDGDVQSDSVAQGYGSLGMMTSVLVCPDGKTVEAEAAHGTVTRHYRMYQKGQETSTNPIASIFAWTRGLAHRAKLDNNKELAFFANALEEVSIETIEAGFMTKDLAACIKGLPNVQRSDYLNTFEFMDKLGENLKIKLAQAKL
IDH1 wt/IDH1 R132H heterodimer, sequence (O75874 whole entry, stated change not applied): as the sequence (O75874 whole entry R132H) above, with H132R counted along it
IDH1-R132H homodimer enzyme, sequence (O75874 whole entry R132H): as the sequence (O75874 whole entry R132H) above

| Compound | IC50 [1] | IC50 (HT1080 cells) | IC50 (IDH2 R140Q) | IC50 [2, 5] | IC50 [3] | IC50 [4] | IC50 ([2]; IDH1 wt/IDH1 R132H heterodimer, 300 μM NADP (saturated), read-out: IDH1 wt/R132H NADPH/NADP IC50 saturated) |
| --- | --- | --- | --- | --- | --- | --- | --- |
| C[C@@H](Nc1nc(NC(C(F)(F)F)C(F)(F)F)nc(-c2cccc(Cl)n2)n1)C(F)(F)F [Compound 100] | < 50 nM | < 50 nM | < 50 nM | < 50 nM | < 50 nM |  |  |
| FC1(F)CC[C@@H](Nc2nc(N[C@H]3CCC(F)(F)C3)nc(-c3cccc(C(F)(F)F)n3)n2)C1 [Compound 102] | < 50 nM | < 50 nM | < 50 nM | < 50 nM | < 50 nM | < 50 nM |  |
| CCC(Nc1nc(NC(CC)C(F)(F)F)nc(-c2cccc(Cl)n2)n1)C(F)(F)F (stereo not shown) [Compound 103] | < 50 nM | < 50 nM | < 50 nM | < 50 nM | < 50 nM | < 50 nM |  |
| CC(Nc1nc(Nc2cc(F)cc(F)c2)nc(-n2ccc(C(F)(F)F)n2)n1)C(F)(F)F (stereo not shown) [Compound 107] | < 50 nM | 100 to 1000 nM | < 50 nM | < 50 nM | < 50 nM | < 50 nM |  |
| Fc1cc(F)cc(Nc2nc(NC3CCC(F)(F)C3)nc(-n3ccc(C(F)(F)F)n3)n2)c1 (stereo not shown) [Compound 108] | < 50 nM | 50 to 100 nM | < 50 nM | < 50 nM | < 50 nM | < 50 nM |  |
| FC1(F)CC[C@@H](Nc2nc(N[C@@H]3CCC(F)(F)C3)nc(-c3cccc(C(F)(F)F)n3)n2)C1 [Compound 111] | < 50 nM | < 50 nM | < 50 nM | < 50 nM | < 50 nM | < 50 nM |  |
| N#Cc1cc(F)cc(Nc2nc(NC3CCC(F)(F)C3)nc(-n3ccc(C(F)(F)F)n3)n2)c1 (stereo not shown) [Compound 112] | < 50 nM | 100 to 1000 nM | < 50 nM | < 50 nM | < 50 nM | < 50 nM |  |
| FC1(F)CC[C@@H](Nc2nc(Nc3ccnc(C(F)(F)F)c3)nc(-c3cncc(C(F)(F)F)n3)n2)C1 [Compound 116] | < 50 nM | 100 to 1000 nM | < 50 nM | < 50 nM | < 50 nM | < 50 nM | < 50 nM |
| FC1(F)CC[C@H](Nc2nc(N[C@H]3CCC(F)(F)C3)nc(-c3cccc(C(F)(F)F)n3)n2)C1 [Compound 118] | < 50 nM | < 50 nM | < 50 nM | < 50 nM | < 50 nM | < 50 nM |  |
| CC(Nc1nc(Nc2cc(F)cc(C#N)c2)nc(-n2ccc(C(F)(F)F)n2)n1)C(F)(F)F (stereo not shown) [Compound 119] | < 50 nM | 50 to 100 nM | < 50 nM | < 50 nM | < 50 nM | < 50 nM |  |
| N#Cc1cc(F)cc(Nc2nc(NC3CC(F)(F)C3)nc(-c3nc(C(F)(F)F)cs3)n2)c1 [Compound 122] | < 50 nM | 50 to 100 nM | < 50 nM | < 50 nM | < 50 nM | < 50 nM |  |
| N#Cc1cc(F)cc(Nc2nc(NC3CCC(F)(F)C3)nc(-c3nc(C(F)(F)F)cs3)n2)c1 (stereo not shown) [Compound 132] | < 50 nM | 100 to 1000 nM | < 50 nM | < 50 nM | < 50 nM | < 50 nM |  |
| N#Cc1cc(F)cc(Nc2nc(NC3CC(F)(F)C3)nc(-n3ccc(C(F)(F)F)n3)n2)c1 [Compound 140] | < 50 nM | 100 to 1000 nM | < 50 nM | < 50 nM | < 50 nM | < 50 nM |  |
| CC(Nc1nc(NC(C)C(F)(F)F)nc(-n2ccc(C(F)(F)F)n2)n1)C(F)(F)F (stereo not shown) [Compound 141] | < 50 nM | < 50 nM | < 50 nM | < 50 nM | < 50 nM | < 50 nM |  |
| FC1(F)CCC(Nc2nc(NC3CC(F)(F)C3)nc(-c3cccc(C(F)(F)F)n3)n2)CC1 [Compound 143] | < 50 nM | 50 to 100 nM | < 50 nM | < 50 nM | < 50 nM | < 50 nM |  |
| FC1(F)CC(Nc2nc(NC3CC(F)(F)C3)nc(-c3cncc(Cl)n3)n2)C1 [Compound 144] | < 50 nM | < 50 nM | < 50 nM | < 50 nM | < 50 nM | < 50 nM |  |
| N#Cc1cc(F)cc(Nc2nc(NC3CC(F)(F)C3)nc(-c3cccc(C(F)(F)F)n3)n2)c1 [Compound 154] | < 50 nM | 100 to 1000 nM | < 50 nM | < 50 nM | < 50 nM | < 50 nM |  |
| CC(F)(F)c1nc(-c2nc(NC3CCC(F)(F)C3)nc(NC3CCC(F)(F)C3)n2)cs1 (stereo not shown) [Compound 155] | < 50 nM | 50 to 100 nM | < 50 nM | < 50 nM | < 50 nM | < 50 nM |  |
| CC(Nc1nc(NC(C)C(F)(F)F)nc(-c2cncc(Cl)n2)n1)C(F)(F)F (stereo not shown) [Compound 156] | < 50 nM | < 50 nM | < 50 nM | < 50 nM | < 50 nM | < 50 nM |  |
| FC1(F)CCCC1Nc1nc(NC2CCCC2(F)F)nc(-c2cccc(Cl)n2)n1 (stereo not shown) [Compound 157] | < 50 nM | < 50 nM | 50 to 100 nM | < 50 nM | < 50 nM | 50 to 100 nM |  |
| Fc1cc(F)cc(Nc2nc(NC3CCC(F)(F)C3)nc(-c3nc(C(F)(F)F)cs3)n2)c1 (stereo not shown) [Compound 159] | < 50 nM | 100 to 1000 nM | < 50 nM | < 50 nM | < 50 nM | < 50 nM |  |
| CC(F)(F)c1cc(Nc2nc(NC3CCC(F)(F)C3)nc(-c3cccc(C(F)(F)F)n3)n2)ccn1 (stereo not shown) [Compound 163] | 50 to 100 nM | 100 to 1000 nM | < 50 nM | < 50 nM | < 50 nM | < 50 nM |  |
| Nc1ccc(F)c(-c2nc(Nc3cc(F)cc(F)c3)nc(NC3CCC(F)(F)CC3)n2)n1 [Compound 165] | 50 to 100 nM | 100 to 1000 nM | < 50 nM | < 50 nM | < 50 nM | < 50 nM |  |
| N#CC1(c2cc(Nc3nc(NC4CC(F)(F)C4)nc(-n4ccc(C(F)(F)F)n4)n3)ccn2)CC1 [Compound 169] | < 50 nM | < 50 nM | < 50 nM | < 50 nM | < 50 nM | < 50 nM |  |
| FC1(F)CCC(Nc2nc(NC3CN(c4ccccn4)C3)nc(-c3cccc(C(F)(F)F)n3)n2)C1 (stereo not shown) [Compound 238] | 100 to 1000 nM | 100 to 1000 nM |  | < 50 nM | < 50 nM |  |  |
| O=C1C[C@H](Nc2nc(NC3CCC(F)(F)C3)nc(-c3cccc(C(F)(F)F)n3)n2)CN1c1ccccn1 (stereo partly shown) [Compound 239] | 100 to 1000 nM | 100 to 1000 nM |  | < 50 nM | < 50 nM |  |  |
| FC1(F)CCC(Nc2nc(NC3CN(c4cccnc4)C3)nc(-c3cccc(C(F)(F)F)n3)n2)C1 (stereo not shown) [Compound 243] | > 1000 nM | 100 to 1000 nM |  | 50 to 100 nM | < 50 nM |  |  |
| CC(C)(O)CNc1nc(NC2CCC(F)(F)C2)nc(-c2cccc(C(F)(F)F)n2)n1 (stereo not shown) [Compound 264] | 100 to 1000 nM | 100 to 1000 nM |  | 100 to 1000 nM | 50 to 100 nM |  |  |
